According to the supplement of paper PMC4862054:

tested on: HCC1143; assay: normalised viability (% of control), CellTiter-Blue; higher = more viable cells (about 100 = DMSO control); details: 1000 nM; incubation time: 72 h
Method in brief: (§1)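 Vehicle (100) and a positive kill control (0) anchored the normalisation of each plate, and Z'-factor was used for quality control. Breast cancer cell lines in 20 µl suspension were incubated 72 h over compound in 5 µl medium in 384-well plates, followed by CellTiter-Blue at 560/590 nm. The value is normalised viability at a single listed concentration of the series.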

Point of comparison: `CCc1cncnc1N1CCN(Cc2nc3ccc(C(F)(F)F)cc3[nH]2)CC1`, normalised viability 106%. Against it:
- C=CC(=O)N1CCC[C@@H](n2nc(-c3ccc(Oc4ccccc4)cc3)c3c(N)ncnc32)C1 — lower, 81.8%
- Oc1ncc(N(CCCl)CCCl)c(O)n1 [Uracil mustard] — lower, 84.8%
- Cc1cnc(NC(=O)Nc2cc(Br)c(C)cc2OC[C@@H]2CNCCO2)cn1 — lower, 79.3%
- CC1=C(/C=C/C(C)=C/C=C/C(C)=C/C(=O)O)C(C)(C)CCC1 [Tretinoin] — lower, 89.3%

same assay, conditions: 10000 nM; incubation time: 72 h

Point of comparison: `C1CN1c1nc(N2CC2)nc(N2CC2)n1` [Triethylenemelamine], normalised viability 93.1%. Against it:
- Nc1nc(F)nc2c1ncn2[C@@H]1O[C@H](CO)[C@@H](O)[C@@H]1O [Fludarabine] — lower, 55.9%
- O=C(O)C1(C(=O)O)CCC1.[NH2-].[NH2-].[Pt+2] [Carboplatin] — lower, 87.7%
- N#Cc1ccc(C(c2ccc(C#N)cc2)n2cncn2)cc1 [Letrozole] — lower, 78.4%
- CCCS(=O)(=O)Nc1ccc(F)c(C(=O)c2c[nH]c3ncc(-c4ccc(Cl)cc4)cc23)c1F [Vemurafenib] — lower, 87.4%
- O=C(O)C(=O)O.[NH-][C@@H]1CCCC[C@H]1[NH-].[Pt+2] [Oxaliplatin] — lower, 44%
- Cc1ccc(-c2cc(C(F)(F)F)nn2-c2ccc(S(N)(=O)=O)cc2)cc1 [Celecoxib] — lower, 86%
- NCCCNCCSP(=O)(O)O [Amifostine] — lower, 75.2%
- C[C@H]1C[C@@H]2[C@H]([C@@H](O)C[C@@]3(C)[C@H]2CC[C@]3(O)C(=O)CO)[C@@]2(C)C=CC(=O)C=C12 [Methylprednisolone] — lower, 92.5%
- CCc1cncnc1N1CCN(Cc2nc3ccc(C(F)(F)F)cc3[nH]2)CC1 — higher, 109%
- Oc1ncc(N(CCCl)CCCl)c(O)n1 [Uracil mustard] — lower, 92.6%
- CC1=C(/C=C/C(C)=C/C=C/C(C)=C/C(=O)O)C(C)(C)CCC1 [Tretinoin] — lower, 88.1%

tested on: CAL-120; assay: as above; details: 1 nM; incubation time: 72 h
Method in brief: as §1

Point of comparison: `COc1cc2c(Oc3ccc4[nH]c(C)cc4c3F)ncnc2cc1OCCCN1CCCC1` [Cediranib], normalised viability 117%. Against it:
- C=CC(=O)N1CCC[C@@H](n2nc(-c3ccc(Oc4ccccc4)cc3)c3c(N)ncnc32)C1 — lower, 86.4%
- Cc1cnc(NC(=O)Nc2cc(Br)c(C)cc2OC[C@@H]2CNCCO2)cn1 — lower, 88.5%

same assay, conditions: 10 nM; incubation time: 72 h

Point of comparison: `Oc1ncc(N(CCCl)CCCl)c(O)n1` [Uracil mustard], normalised viability 88.3%. Against it:
- Nc1nc(F)nc2c1ncn2[C@@H]1O[C@H](CO)[C@@H](O)[C@@H]1O [Fludarabine] — lower, 82.3%
- O=C(O)C1(C(=O)O)CCC1.[NH2-].[NH2-].[Pt+2] [Carboplatin] — lower, 87%
- N#Cc1ccc(C(c2ccc(C#N)cc2)n2cncn2)cc1 [Letrozole] — lower, 72.4%
- C1CN1c1nc(N2CC2)nc(N2CC2)n1 [Triethylenemelamine] — higher, 112%
- CCCS(=O)(=O)Nc1ccc(F)c(C(=O)c2c[nH]c3ncc(-c4ccc(Cl)cc4)cc23)c1F [Vemurafenib] — higher, 92.6%
- O=C(O)C(=O)O.[NH-][C@@H]1CCCC[C@H]1[NH-].[Pt+2] [Oxaliplatin] — lower, 87.1%
- Cc1ccc(-c2cc(C(F)(F)F)nn2-c2ccc(S(N)(=O)=O)cc2)cc1 [Celecoxib] — higher, 94.5%
- NCCCNCCSP(=O)(O)O [Amifostine] — lower, 71.9%
- C[C@H]1C[C@@H]2[C@H]([C@@H](O)C[C@@]3(C)[C@H]2CC[C@]3(O)C(=O)CO)[C@@]2(C)C=CC(=O)C=C12 [Methylprednisolone] — higher, 89.7%
- CCc1cncnc1N1CCN(Cc2nc3ccc(C(F)(F)F)cc3[nH]2)CC1 — higher, 104%
- CC1=C(/C=C/C(C)=C/C=C/C(C)=C/C(=O)O)C(C)(C)CCC1 [Tretinoin] — lower, 82.5%

same assay, conditions: 100 nM; incubation time: 72 h

Point of comparison: `COc1cc2c(Oc3ccc4[nH]c(C)cc4c3F)ncnc2cc1OCCCN1CCCC1` [Cediranib], normalised viability 110%. Against it:
- C=CC(=O)N1CCC[C@@H](n2nc(-c3ccc(Oc4ccccc4)cc3)c3c(N)ncnc32)C1 — lower, 86.4%
- Cc1cnc(NC(=O)Nc2cc(Br)c(C)cc2OC[C@@H]2CNCCO2)cn1 — lower, 96.4%

same assay, conditions: 1000 nM; incubation time: 72 h

Point of comparison: `C=CC(=O)N1CCC[C@@H](n2nc(-c3ccc(Oc4ccccc4)cc3)c3c(N)ncnc32)C1`, normalised viability 97%. Against it:
- Nc1nc(F)nc2c1ncn2[C@@H]1O[C@H](CO)[C@@H](O)[C@@H]1O [Fludarabine] — lower, 78.5%
- O=C(O)C1(C(=O)O)CCC1.[NH2-].[NH2-].[Pt+2] [Carboplatin] — lower, 95.4%
- N#Cc1ccc(C(c2ccc(C#N)cc2)n2cncn2)cc1 [Letrozole] — lower, 86.6%
- C1CN1c1nc(N2CC2)nc(N2CC2)n1 [Triethylenemelamine] — higher, 106%
- CCCS(=O)(=O)Nc1ccc(F)c(C(=O)c2c[nH]c3ncc(-c4ccc(Cl)cc4)cc23)c1F [Vemurafenib] — lower, 91.8%
- O=C(O)C(=O)O.[NH-][C@@H]1CCCC[C@H]1[NH-].[Pt+2] [Oxaliplatin] — lower, 93.2%
- Cc1ccc(-c2cc(C(F)(F)F)nn2-c2ccc(S(N)(=O)=O)cc2)cc1 [Celecoxib] — lower, 79.7%
- NCCCNCCSP(=O)(O)O [Amifostine] — lower, 84.1%
- COc1cc2c(Oc3ccc4[nH]c(C)cc4c3F)ncnc2cc1OCCCN1CCCC1 [Cediranib] — lower, 81.4%
- C[C@H]1C[C@@H]2[C@H]([C@@H](O)C[C@@]3(C)[C@H]2CC[C@]3(O)C(=O)CO)[C@@]2(C)C=CC(=O)C=C12 [Methylprednisolone] — lower, 79.3%
- CCc1cncnc1N1CCN(Cc2nc3ccc(C(F)(F)F)cc3[nH]2)CC1 — higher, 135%
- Oc1ncc(N(CCCl)CCCl)c(O)n1 [Uracil mustard] — lower, 87.5%
- Cc1cnc(NC(=O)Nc2cc(Br)c(C)cc2OC[C@@H]2CNCCO2)cn1 — lower, 90.1%
- CC1=C(/C=C/C(C)=C/C=C/C(C)=C/C(=O)O)C(C)(C)CCC1 [Tretinoin] — lower, 81.2%

same assay, conditions: 10000 nM; incubation time: 72 h

Point of comparison: `O=C(O)C1(C(=O)O)CCC1.[NH2-].[NH2-].[Pt+2]` [Carboplatin], normalised viability 78.3%. Against it:
- Nc1nc(F)nc2c1ncn2[C@@H]1O[C@H](CO)[C@@H](O)[C@@H]1O [Fludarabine] — higher, 81.5%
- N#Cc1ccc(C(c2ccc(C#N)cc2)n2cncn2)cc1 [Letrozole] — higher, 80.2%
- C1CN1c1nc(N2CC2)nc(N2CC2)n1 [Triethylenemelamine] — higher, 98.7%
- CCCS(=O)(=O)Nc1ccc(F)c(C(=O)c2c[nH]c3ncc(-c4ccc(Cl)cc4)cc23)c1F [Vemurafenib] — lower, 71.7%
